Experimental data published in paper PMC7249156, “Tricyclic Derivative of Acyclovir and Its Esters in Relation to the Esters of Acyclovir Enzymatic Stability: Enzymatic Stability Study” (Molecules, 2020).
Where two headings read alike, the source gives them in different places.

Assays:
[1] = Stability test (hydrolysis) in human plasma (80%, 37 °C); type: in vitro ADME
Description: The condition for determining the values of the observed rate constants is to observe changes in the concentration of the tested compound over time ensuring degradation of at least 80% of the compound. In plasma, hydrolysis reactions were carried out until a minimum 50% loss of the tested compound was obtained except for the extremely stable 6-(4-MeOPh)-TACV under these conditions. In this case, the observed loss was 22% during the 25-h reaction. Further carrying out of this reaction in vitro in a temperature of 37 °C was not recommended (Figure 2).
Stability tests were performed in human plasma (80%, v/v) thermostated in a water bath at 37 °C. In total, 2.50 mg of each of the analyzed compounds were weighed and dissolved in 0.5 mL of DMSO (5.0 mg/mL). For plastic screw-on tubes containing 4.0 mL of plasma, 0.8 mL of PBS buffer were added, mixed, and thermostated in a water bath. Then, 0.2 mL of the tested compound solution in DMSO (5.0 mg/mL) were added to the incubated plasma. Samples were thermostated at 37 °C and at specified intervals. After mixing, 0.2 mL of the test sample were taken and transferred to 0.4 mL of the appropriate internal standard solution (Table 1). After mixing, the samples were centrifuged for […] (5 min, 13,000 rpm). The supernatant was transferred to the tubes and analyzed by the HPLC method in a suitable phase system (Table 1). The initial concentration of the tested compounds in the plasma was 200 μg/mL, while in the analyte solution (supernatant) it was 66.7 μg/mL.
(§1) The HPLC-MS/MS method was used for analysis of the solutions hydrolyzed in plasma (80% v/v, 37 °C, 24 h) and in plasma (80%, v/v) with porcine esterase at a concentration of 5.50 × 10^−9 M (37 °C, 2 h). The samples were prepared according to the procedure described in Section 3.4.1 and Section 3.4.2, and then diluted with water in a proportion of 1:100 (v/v).

[2] = system: esterase from porcine liver (PLE); test: Stability test in plasma (80%, 37 °C) with porcine liver esterase; type: in vitro ADME; details: for kobs. ± Δkobs. / t0.5: plasma 80%
Source text: For the correct interpretation of the distribution of the tested compounds under the influence of esterase, it is necessary to know the specificity of the enzymatic reactions (Scheme 1). The biotransformation occurring during enzymatic hydrolysis can be treated as a limited capacity process and described using the Michaelis–Menten equation:(2) V=−dc/dt=Vm·c/KM+c, where: c—substance concentration, V = −(dc/dt)—rate of change of substance concentration, Vm—maximum theoretical speed of the process, and KM—Michaelis constant (numerically equal to the concentration of the substance at which its elimination occurs at a rate equal to half of Vm).
In case the value of the Michaelis constant is much higher than the concentration of the substance (KM >> c), Equation (2) can be simplified to the form of:(3) V=−dc/dt=k2/KM·cE·c=Vm/KM·c=kobs.·c, where: cE—enzyme concentration.
After transformation:(4) kobs.=k2/KM·cE=Vm/KM.
A 1 U/μL aqueous pork esterase solution was prepared by diluting the suspension with 200 μL of water. Here, 168,000 Da was used as the molecular weight of the esterase and the molar concentration of the enzyme in a determined volume of the test sample of 5.0 mL was calculated (1 μL of the enzyme solution in 5.0 mL corresponded to a concentration of 5.50 × 10^−9 M).
For plastic screw-on tubes containing 4.0 mL of plasma, 0.8 mL of PBS buffer was added, mixed, and thermostated in a water bath (37 °C). A fixed volume of enzyme (0.5–11.0 μL) was added to the incubated plasma, mixed, and thermostated for 15 min. Then, 0.2 mL of the tested compound solution in DMSO (5.00 mg/mL) were added, mixed thoroughly, and proceeded as described in Section 3.4.1.
as §1

[3] = Stability of the analyte (supernatant) on storage; type: physicochemical; details: supernatant stored in freezer (−20 °C)
Description: For each substance, samples with two concentrations in the linearity range of the method were prepared. The supernatants of both solutions were analyzed by HPLC immediately after preparation and after storage at room temperature (25 °C), in a refrigerator (4 °C) and freezer compartment (−20 °C). The degree of decomposition of the tested compounds with respect to the initial value was determined.

[4] = design: method as in PMID 18638532; details: valaciclovir; cited from earlier work

| Compound | kobs. ± Δkobs. (pseudo-first-order rate constant of hydrolysis) ([1]; human plasma 80%) | t0.5 ([1]; human plasma 80%) | kobs. ± Δkobs. ([2]; cE 2.0 U, 1.10·10^−8 M) | t0.5 ([2]; cE 2.0 U, 1.10·10^−8 M) | kobs. ± Δkobs. ([2]; cE 3.0 U, 1.65·10^−8 M) | t0.5 ([2]; cE 3.0 U, 1.65·10^−8 M) | time for which analyte solution was considered stable [3] | kobs. ± Δkobs. ([2]; cE 5.0 U, 2.75·10^−8 M) | t0.5 ([2]; cE 5.0 U, 2.75·10^−8 M) | kobs. ± Δkobs. ([2]; cE 4.0 U, 2.20·10^−8 M) | t0.5 ([2]; cE 4.0 U, 2.20·10^−8 M) | kobs. ± Δkobs. ([2]; cE 6.0 U, 3.30·10^−8 M) | t0.5 ([2]; cE 6.0 U, 3.30·10^−8 M) | further results |
| --- | --- | --- | --- | --- | --- | --- | --- | --- | --- | --- | --- | --- | --- | --- |
| CC(C)C(=O)OCCOCn1cnc2c(=O)[nH]c(N)nc21 [iBut-ACV] | (4.16 ± 0.16)·10^−4 s^−1 | 0.46 h | (3.98 ± 0.13)·10^−3 s^−1 | 2.9 min | (5.49 ± 0.20)·10^−3 s^−1 | 2.1 min |  |  |  |  |  |  |  | kobs. ± Δkobs. ([2]; cE 0.5 U, 2.75·10^−9 M): (1.24 ± 0.12)·10^−3 s^−1; t0.5 ([2]; cE 0.5 U, 2.75·10^−9 M): 9.3 min; kobs. ± Δkobs. ([2]; cE 1.0 U, 5.50·10^−9 M): (2.24 ± 0.09)·10^−3 s^−1; t0.5 ([2]; cE 1.0 U, 5.50·10^−9 M): 5.2 min |
| CC(C)(C)C(=O)OCCOCn1cnc2c(=O)[nH]c(N)nc21 [Piv-ACV] | (2.38 ± 0.17)·10^−5 s^−1 | 8.09 h | (4.71 ± 0.10)·10^−4 s^−1 | 24.5 min | (8.11 ± 0.15)·10^−4 s^−1 | 14.3 min | 27 days | (1.40 ± 0.04)·10^−3 s^−1 | 8.3 min |  |  |  |  | kobs. ± Δkobs. ([2]; cE 1.0 U, 5.50·10^−9 M): (2.97 ± 0.09)·10^−4 s^−1; t0.5 ([2]; cE 1.0 U, 5.50·10^−9 M): 38.9 min |
| CC(C)[C@H](N)C(=O)OCCOCn1cnc2c(=O)[nH]c(N)nc21 [valaciclovir] |  |  |  |  |  |  |  |  |  |  |  |  |  | t0.5 [4]: 226 h |
| Nc1nc2c(ncn2COCCOC(=O)c2cccnc2)c(=O)[nH]1 [Nic-ACV] | (4.31 ± 0.23)·10^−4 s^−1 | 0.45 h |  |  | (5.35 ± 0.23)·10^−4 s^−1 | 21.6 min |  | (5.77 ± 0.32)·10^−4 s^−1 | 20.0 min | (5.59 ± 0.50)·10^−4 s^−1 | 20.7 min | (6.03 ± 0.22)·10^−4 s^−1 | 19.2 min |  |
| CC(=O)OCCOCn1cnc2c(=O)[nH]c(N)nc21 [Ac-ACV] | (6.47 ± 0.49)·10^−5 s^−1 | 2.98 h |  | 264 min |  |  |  |  |  | (7.94 ± 0.23)·10^−5 s^−1 | 144 min | (1.15 ± 0.02)·10^−4 s^−1 | 102 min | kobs. ± Δkobs. ([2]; cE 8.0 U, 4.40·10^−8 M): (1.55 ± 0.04)·10^−4 s^−1; t0.5 ([2]; cE 8.0 U, 4.40·10^−8 M): 72 min |
| CCOC(=O)OCCOCn1cnc2c(=O)[nH]c(N)nc21 [Etc-ACV] | (7.99 ± 0.37)·10^−5 s^−1 | 2.41 h | (6.48 ± 0.35)·10^−4 s^−1 | 17.8 min | (8.60 ± 0.34)·10^−4 s^−1 | 13.4 min | 27 days | (1.54 ± 0.07)·10^−3 s^−1 | 7.5 min | (1.20 ± 0.03)·10^−3 s^−1 | 9.6 min |  |  |  |
| COc1ccc(-c2cn3c(=O)c4ncn(COCCO)c4nc3[nH]2)cc1 [6-(4-MeOPh)-TACV, 3,9-Dihydro-3-[(2-hydroxyethoxy)methyl]-6-(4-methoxyphenyl)-9-oxo-5H-imidazo[1,2-a]–purine] | (2.81 ± 0.36)·10^−6 s^−1 | 68.40 h | (7.39 ± 0.49)·10^−6 s^−1 | 1560 min | (8.21 ± 0.58)·10^−6 s^−1 | 1410 min | 27 days |  |  | (8.37 ± 0.24)·10^−6 s^−1 | 1360 min | (9.58 ± 0.39)·10^−6 s^−1 | 1210 min | observed loss of compound ([1]; human plasma 80%, 25-h reaction): 22%; degree of hydrolysis seen by HPLC-MS/MS ([1]; plasma 80%, 24 h): occurred to a small extent; degree of hydrolysis seen by HPLC-MS/MS ([2]; plasma 80% with porcine esterase 5.50·10^−9 M, 2 h): occurred to a small extent |
